Experimental data as given in patent US12697316B2, “Combination therapy with acetyl-leucine and miglustat” (INTRABIO LTD., priority 2019, dated 2026).

Experiments:
Npc1^−/− mice [1] = assay: CatWalk automated gait analysis in Npc1−/− mice; assay type: in vivo, mouse; conditions: for ataxia (lateral displacement from a straight trajectory): 9-week-old Npc1−/− mice treated from 8 weeks of age (1 week), 0.1 g/kg/day in diet; for ataxia (lateral displacement from a straight trajectory) / duty cycle of hind paws / hind paw stand mean: vs untreated Npc1−/−; for magnitude of ataxia: Npc1−/− mice treated from weaning (3 weeks), assessed at 9 weeks (6 weeks of treatment)
Description: (§1) BALBc/NPC ^h and Sandhoff mice were bred as heterozygotes to generate affected mice (Npc1^−/−, Hexb^−/−) and controls (Npc^+/+, Hexb^+/+). The mice were housed under non-sterile conditions, with food and water available ad libitum. All experiments were conducted using protocols approved by the UK Home Office Animal Scientific Procedures Act, 1986.
(§2) ADLL and enantiomers (ADLL: Molekula #73891210, ALL: Sigma Aldrich #441511, ADL: Sigma #A0876) were administered as dry admix in powdered mouse diet (PicoLab Rodent Diet 20/5053, LabDiet) at a dose of 0.1 g/kg/day for in vivo studies. Treatment groups for in vivo study consisted of at least 5 mice per group. In vitro studies were conducted with each compound dissolved in PBS to generate a 50 mM stock solution and diluted to a 1 mM working concentration in media (DMEM High Glucose-Gibco #10566016).
(§3) Miglustat (Monsanto/Oxford GlycoSciences) was administered as a dry solid mixed with powdered chow (600 mg/kg/day) (see above) alone or in combination with ADLL.
(§4) The weight and activity of each mouse was recorded weekly until reaching the humane endpoint (defined as a loss of 1 g body weight within 24 h). Gait analysis was performed using CatWalk 10.5 system (Noldus) according to the manufacturer's instructions and five runs were recorded per animal at each time point. The camera was set to 40 cm below the walkway, the walkway was approximately 4 cm wide, and detection settings set to camera gain 14.05 and green intensity 0.12. Motor function was measured using an accelerating NG Rota Rod for mice (Ugo Basile) starting from 1 rpm to 10 rpm, accelerating every 30 seconds by one rpm. Bar crossing experiments on Sandhoff animals were conducted to measure motor strength and coordination. The apparatus used was modified from published studies. Briefly, a metal bar (1.2 mm width and 26 cm in length) was suspended horizontally between two wooden supports 30 cm high over a cushioned surface and animals were allowed to grasp the center of the bar with forepaws only, the tail was released, and the clock was started. Latency to cross or fall from the bar was scored, with 120 sec, maximum, to termination of each trial. A score was given to each animal between +120 and −120. If crossing time was greater than 0, then score=120−CT; if falling time was greater than 0, the score=FT−120.

Npc1^−/− mice [2] = assay: Cerebellar immunohistochemistry (Purkinje cells, CD68 microglia) in Npc1−/− mice; assay type: in vivo, mouse; conditions: for Purkinje cell survival in any cerebellar lobules / reduction of frequency of CD68 positive activated microglia: compared to Npc1−/− UT; for reduction of frequency of CD68 positive activated microglia: cerebellum
Description: as §2
Biochemical and immunohistochemical analyses. Mice were saline perfused under terminal anaesthesia. Tissues for biochemical analysis were snap-frozen on ice-cold isopentane. For immunofluorescent staining, tissues were perfused with 4% PFA followed by PBS and kept in 4% PFA for 24h and stored in PBS containing 20% sucrose longer term. Brains were cut parasagitally (20 micron sections) and stored in 30% ethylene glycol, 30% glycerol 0.1 M sodium phosphate buffer (pH 7.4) at −20° C. Biochemical analysis was performed on water-homogenised tissues (50 mg/ml) and protein content was determined using a BCA protein assay (Thermo Fisher #23227) according to the manufacturer's instructions.
Immunohistochemistry: Free-floating brain sections in glycerol/ethylene were rinsed 3 times with PBS and blocked with 2% goat serum in 0.3% PBS Triton at room temperature. Sections were stained with primary antibodies; rabbit Calbindin (1:2000) and rat CD68 (1:500) in 2% goat serum in 0.3% PBS for 16 hours at 4° C., followed by washing with 0.3% PBS Triton, then 3 times with PBS. Secondary antibody staining (Alexa Fluor 597 Goat anti rabbit Far Red, Alexa Fluor 488 Goat anti rat) was conducted at room temperature for 2 hours. Samples were washed once with 0.3% PBS Triton, 3 times with PBS and manually mounted on slides. Slides left on the bench overnight to dry the sections followed by application of ProLong Gold (Invitrogen, #P36930).
Image Acquisition and Quantification: Brain sections and CHO cells imaging was performed with a Leica-SP8 confocal microscope in tile imaging mode. Western blot data acquisition was conducted with LiCOR Odyssey Infrared Imaging system model no 9120. Mean fluorescence values, cerebellum diameters and areas, cell quantifications were calculated with Fuji Version 1.0 software.

[3] = test system: Npc1^−/− Chinese Hamster Ovary (CHO) cells; assay: Lysotracker Green relative lysosomal volume (FACS) in NPC1 null CHO cells; assay type: cell-based; conditions: 1 mM
Description: Wild type and NPC1 null Chinese Hamster Ovary (CHO) cells were kindly provided by Chris Wassif (NIH).
as §2
Lysotracker Green and Propidium Iodide Staining of CHO cells: In vitro FACS experiments were performed in order to measure relative acidic compartment volume staining live cells with LysoTracker™ Green DND-26 (Thermo Fisher-L7526) at 250 nM for 10 minutes in PBS at RT, centrifuged at 1200 rpm for 10 min and cells resuspended in FACS buffer (PBS, 1% BSA, 0.1% NaN3 sodium azide). Cells were stained with propidium iodide (20 nM) (Invitrogen-P3566) immediately prior to analysis on the FACS for dead cell discrimination. FACS analysis was performed on 10,000 recorded cells using FACS Canto (Becton Dickinson, (BD)) with BD software.

Npc1^−/− mice [4] = assay: Accelerating Rotarod motor function in Npc1−/− mice; assay type: in vivo, mouse; conditions: Npc1−/− mice treated from 3 weeks, assessed at 8 weeks, vs untreated Npc1−/−
Description: The weight and activity of each mouse was recorded weekly until reaching the humane endpoint (defined as a loss of 1 g body weight within 24 h). […] Motor function was measured using an accelerating NG Rota Rod for mice (Ugo Basile) starting from 1 rpm to 10 rpm, accelerating every 30 seconds by one rpm.

Npc1^−/− mice [5] = assay: Survival / life span of Npc1−/− mice; assay type: in vivo, mouse
Description: as §1, §2, §3
as §4, with “Briefly, a metal bar (1.2 mm width and 26 cm in length) was suspended horizontally between two wooden supports 30 cm high over a cushioned surface and animals were allowed to grasp the center of the bar with forepaws only, the tail was released, and the clock was started.” left out, “A score was given to each animal between +120 and −120. If crossing time was greater than 0, then score=120−CT; if falling time was greater than 0, the score=FT−120.” left out

[6] = Npc1−/− mice treated from 3 weeks, assessed at 8 weeks
[7] = 59 days of age, relative to untreated Npc1−/− littermates

Compound | ataxia (lateral displacement from a straight trajectory) (Npc1^−/− mice [1]) | duty cycle of hind paws (Npc1^−/− mice [1]; [6]) | hind paw stand mean (Npc1^−/− mice [1]; [6]) | magnitude of ataxia (Npc1^−/− mice [1]) | Purkinje cell survival in any cerebellar lobules (Npc1^−/− mice [2]; 59 days of age) | reduction of frequency of CD68 positive activated microglia (Npc1^−/− mice [2]; 59 days of age) | reduction of relative lysosomal volume ([3]; 24 h) | reduction of relative lysosomal volume ([3]; 72 h) | Rotarod performance (Npc1^−/− mice [4]) | more Purkinje cells in lobule III (Npc1^−/− mice [2]; [7]) | more Purkinje cells in lobules I and II (Npc1^−/− mice [2]; [7]) | median survival (Npc1^−/− mice [5]; Npc1−/− mice, ADLL 0.1 g/kg/day, miglustat 600 mg/kg/day in chow, untreated Npc1−/− 87 days) | motor function assessed using Catwalk (Npc1^−/− mice [1]; [6]) | long term neuroprotective effects (Npc1^−/− mice [2]; Npc1−/− mice) | increase in life span (Npc1^−/− mice [5]; Npc1−/− mice treated from weaning, 0.1 g/kg/day, relative to untreated Npc1−/−)
CC(=O)N[C@@H](CC(C)C)C(=O)O [ALL, N-acetyl-L-leucine] | significantly reduced ataxia | significantly reduced | significantly reduced | significantly reduced | did not significantly improve | 20% | 16% | 22.8% | significant improvement | – | – | – | – | – | –
CC(=O)NC(CC(C)C)C(=O)O (racemic) [ADLL, N-acetyl-DL-leucine] | significantly reduced ataxia | significantly reduced | significantly reduced | significantly reduced | – | did not have a significant impact | 16.9% | 24% | significant improvement | 402% | 133% | 91 days | – | – | –
CC(=O)N[C@H](CC(C)C)C(=O)O [ADL, N-acetyl-D-leucine] | significantly reduced ataxia | – | – | significantly reduced | did not significantly improve | did not have a significant impact | – | 22.3% | no significant benefit | – | – | – | no significant benefit | did not mediate any long term, neuroprotective effects | not changed
